Read-outs that look alike come from different tables or passages of the source. Each block holds one molecule with its values, some of them ahead of it.
Experiments:
[1] = cited from earlier work
[2] = Stable iron isotope absorption study in healthy adult women (erythrocyte incorporation of oral isotopic labels)
Text: The human study was a controlled, single blind (to the subjects), single center trial. Healthy adult women (n = 23) consumed 6 different types of investigational products in random order with a cross-over design: bouillon with and without corn porridge fortified either with [^58Fe]-PA-HCP, [^54Fe]-SO4, or [^57Fe]-PP, resulting in 6 different test meal sequences. The sequences built up a Partial Williams Latin square, balanced for first order carry over. The experimental phase lasted for a period of 33 days.
The human study was conducted between December 2016 and February 2017 at the Laboratory of Human Nutrition of the ETH Zurich. […] The study procedure was explained in detail and written informed consent was obtained. An interview was conducted, weight and height were measured and a venous blood sample was drawn to assess whether participants fulfilled inclusion and exclusion criteria (Hb, Ht, number of erythrocytes, PF). […] The labelled iron-fortified test meals were administered on days 1, 2, 3, 17, 18 and 19 (Fig. 3). Test meals were administered between 07:00 and 09:30 after an overnight fast. The participants consumed the complete test meal and a glass of 300 mL ultrapure water in the presence of the investigators. […] Quantitative consumption of the investigational product was ensured by washing the glass test meal container 2 times with 10 mL of ultrapure water. After consuming the test meals, participants were not allowed to eat or drink for 3 h.
Venous blood samples were collected after an overnight fast on day 1 (baseline), day 17 and day 33 (endpoint) to determine iron status and iron absorption from the test meals. Iron absorption was determined by quantifying the incorporation of oral stable isotopic labels into erythrocytes. Adverse events and concomitant medication were inquired and documented during the entire study. All experiments were performed in accordance with relevant guidelines and regulations. The study was approved by the ethics Committee of the Canton Zurich, Switzerland (KEK-ZH-Nr. 2016–01472). Participants gave informed written consent before participation in the study and received a symbolic reimbursement at the end of the trial. The study was registered at clinicaltrials.gov as NCT02993835 on December 15, 2016.
The bouillon meal was prepared from 300 g ultrapure water and 7 g commercial vegetable bouillon powder (Maggi Gemüse Bouillon, Maggi, Singen, Germany) per serving. The bouillon contained iodized salt, dehydrated vegetables (onion, carrot, spinach, celery), yeast extracts, white sugar, potato starch, vegetable extracts (carrot, leek, onion, garlic), sunflower seed oil, natural flavours, spices (curcumin, paprika, nutmeg), chervil, caramelized sugar and natural celery flavour. […] The inhibitory meal was a corn porridge, prepared from 300 g ultrapure water, 7 g commercial vegetable bouillon powder and 50 g whole corn flour per serving (Farina per polenta integrale, Paolo Bassetti, Pianezzo, Switzerland) to achieve an absorption-inhibiting PA:Fe molar ratio of 5.0[31],[40], representative of a moderately inhibitory meal. Whole corn flour has a phytic acid content of about 1–2%, which is higher than in wheat (0.9%) and rice (0.7%)[12],[41]. Test meals were prepared the day before each feeding and stored in individual portions in a refrigerator overnight. On the day of administration, test meals were heated in a microwave oven. The pre-weighed vials containing the labeled iron compounds were added to the test meals and were rinsed 2 times with 2 mL of ultrapure water. […] Bouillon meals further contained 0.1 mg intrinsic iron and the inhibitory meals contained 0.8 mg Fe from the corn flour.

[3] = test system: Caco-2 cells
[4] = cited from earlier work; remark: listed apart in the source
[5] = dogs, cited from earlier work
[6] = PF < 40 µg/L, bouillon + inhibitory meal
[7] = PF ≥ 40 µg/L, bouillon + inhibitory meal

Molecule: Diphosphate sodium salt
fractional absorption ([1]; bouillon, with the diphosphate added (4.4% without)): 6.4%
relative bioavailability ([1]; in vivo): 13–23%

Factor by which FIA is lower in the inhibitory meal compared to bouillon ([2]; in vivo): 6.8
In vitro fractional bioaccessibility (IVFBA), geo-mean [3]: 9.6%
Molecule: ferrous sulfate [FeSO4]

Molecule: O=P([O-])([O-])OP(=O)([O-])[O-].O=P([O-])([O-])OP(=O)([O-])[O-].O=P([O-])([O-])OP(=O)([O-])[O-].[Fe+3].[Fe+3].[Fe+3].[Fe+3] [FePP, Ferric pyrophosphate]
factor (FIA, bouillon vs bouillon + inhibitory meal) ([2]; PF < 40 µg/L): 6.7
factor (RBV, bouillon + inhibitory meal vs bouillon) ([2]; PF < 40 µg/L): 1.2
FIA, geo-mean ([2]; PF < 40 µg/L, bouillon): 1.9%
RBV, geo-mean ([2]; PF < 40 µg/L, bouillon): 5.8%
FIA, geo-mean [2, 6]: 0.3%
RBV, geo-mean [2, 6]: 7.1%
factor (FIA, bouillon vs bouillon + inhibitory meal) ([2]; PF ≥ 40 µg/L): 6.2
factor (RBV, bouillon + inhibitory meal vs bouillon) ([2]; PF ≥ 40 µg/L): 0.9
FIA, geo-mean ([2]; PF ≥ 40 µg/L, bouillon): 1.7%
RBV, geo-mean ([2]; PF ≥ 40 µg/L, bouillon): 8.8%
FIA, geo-mean [2, 7]: 0.3%
RBV, geo-mean [2, 7]: 8.3%
Factor by which FIA is lower in the inhibitory meal compared to bouillon ([2]; all participants): 5.9
Factor by which RBV is higher in the inhibitory meal compared to bouillon ([2]; all participants): 1.2
RBV ([1]; fortified bouillon cubes, mean PF of participants 9.4 µg/L): 13%

Molecule: O=P(O)(O)OC1C(OP(=O)(O)O)C(OP(=O)(O)O)C(OP(=O)(O)O)C(OP(=O)(O)O)C1OP(=O)(O)O.[Fe+3] (stereo not drawn) [monoferric phytate]
relative biological value of iron ([4]; rat study): equivalent to common iron fortificants such as ferrous ammonium sulfate
bioavailability ([4]; rats): highly bioavailable
absorption ([5]; added to meals): equal to the major pool of dietary inorganic iron
bioavailability [5]: highly bioavailable
iron absorption ([1]; humans): absorbed at least as well as the common pool of non-heme dietary iron

— publication PMC7093532, “Iron bioavailability from bouillon fortified with a novel ferric phytate compound: a stable iron isotope study in healthy women (part II)” (Scientific Reports, 2020)
